Results as given in the CheMixHub viscosity set.

Test: xn = mol fraction of the nth substance listed

CC(O)CC(C)(C)O (centres undefined) + Nc1ccccc1
viscosity [mPa·s], 101 kPa
Settings	x1 = 0.0963	x1 = 0.1952	x1 = 0.2931	x1 = 0.3958	x1 = 0.4941	x1 = 0.5915	x1 = 0.6855	x1 = 0.8047	x1 = 0.8966
308.15 K	3.187	3.549	4.028	4.615	5.519	6.694	8.195	10.82	14.34
318.15 K	2.348	2.62	3.031	3.543	4.32	5.405	6.826	9.45	12.55

Cc1ccc(O)cc1 + Nc1ccccc1
viscosity [mPa·s], 101.33 kPa
Settings	x1 = 0.2696	x1 = 0.4987	x1 = 0.5914	x1 = 0.7696	x1 = 0.8857
298.15 K	6.95	10.7	12.4	14.4	14.5
323.15 K	2.93	3.97	4.26	4.62	4.71

Cc1cccc(C)c1 + Cc1ccc(C)cc1
viscosity [mPa·s], 101.3 kPa
Settings	298.15 K	303.15 K
x1 = 0.0856	–	0.5666
x1 = 0.0857	0.6046	–
x1 = 0.1427	–	0.5659
x1 = 0.1428	0.6026	–
x1 = 0.2528	0.5998	0.5651
x1 = 0.3046	–	0.5648
x1 = 0.3922	0.5968	0.5643
x1 = 0.474	0.5955	0.5641
x1 = 0.5823	–	0.5636
x1 = 0.5824	0.5942	–
x1 = 0.6995	0.5935	0.5627
x1 = 0.8337	0.5928	–
x1 = 0.8339	–	0.5614
x1 = 0.9538	0.5899	0.5602

Cc1ccc(O)cc1 + CS(C)=O
viscosity [mPa·s], 101 kPa
Settings	x1 = 0.0702	x1 = 0.1453	x1 = 0.2257	x1 = 0.3119	x1 = 0.4047	x1 = 0.505	x1 = 0.5778	x1 = 0.7312	x1 = 0.8595
303.15 K	2.036	2.307	2.913	3.456	4.277	5.056	6.524	7.908	9.499
308.15 K	1.792	2.04	2.565	3.062	3.709	4.324	5.403	6.543	7.655
313.15 K	1.604	1.833	2.293	2.698	3.24	3.769	4.649	5.745	6.083
318.15 K	1.476	1.668	2.054	2.417	2.857	3.328	4.01	4.945	5.111

CCCCOCCOCCO + O
viscosity [mPa·s], 101 kPa
Settings	293.15 K	303.15 K	313.15 K	323.15 K
x1 = 0.01221	1.52	1.15	0.908	0.738
x1 = 0.02709	2.26	1.64	1.27	1.02
x1 = 0.04539	3.18	2.31	1.76	1.38
x1 = 0.0689	4.35	3.1	2.32	1.79
x1 = 0.09981	5.57	3.93	2.88	2.19
x1 = 0.1428	6.78	4.74	3.44	–
x1 = 0.2062	7.94	–	3.88	2.87
x1 = 0.3078	8.42	5.78	–	3.07
x1 = 0.4	–	–	–	3.195
x1 = 0.4037	8.24	5.75	–	3.08
x1 = 0.5015	7.84	5.55	4.04	3.02
x1 = 0.6107	7.35	5.27	3.86	2.91
x1 = 0.705	6.94	5	3.7	2.81
x1 = 0.7958	6.56	4.76	3.54	2.71
x1 = 0.8932	6.2	4.49	3.38	2.61

C1CC[NH2+]C1.CCCCCCCC(=O)[O-] + CCO
viscosity [mPa·s], 101 kPa
Settings	x1 = 0.1638	x1 = 0.3038	x1 = 0.4308	x1 = 0.5046	x1 = 0.5837	x1 = 0.7453	x1 = 0.838	x1 = 0.9223
293.15 K	3.7	8.2	14	17.06	23.1	36.6	47.3	58.2
298.15 K	3.85	7.02	12.99	16.3	21.3	34.08	44.23	52.4
303.15 K	3	5.7	10.5	13.39	17.6	29.14	36.3	42.7
308.15 K	2.9	7.3	11.21	14.5	18.1	25.4	31.3	36.4
313.15 K	2.7	6.8	9.8	11.79	15	22	26.8	30.3

O=S1(=O)CCCC1 + c1ccccc1
viscosity [mPa·s]
Settings	303.15 K	313.15 K	323.15 K
101 kPa, x1 = 0.0944	0.7133	0.6194	0.5441
101 kPa, x1 = 0.1855	0.8992	0.7737	0.6751
101 kPa, x1 = 0.2522	1.074	0.9112	0.7919
101 kPa, x1 = 0.2849	1.162	0.9889	0.8556
101 kPa, x1 = 0.3829	1.504	1.267	1.085
101 kPa, x1 = 0.4835	1.976	1.648	1.396
101 kPa, x1 = 0.5905	2.694	2.202	1.855
101 kPa, x1 = 0.6841	3.563	2.879	2.388
101 kPa, x1 = 0.7917	5.014	3.996	3.267
101 kPa, x1 = 0.8956	7.129	5.619	4.505
101.3 kPa, x2 = 0.1417	6.075	–	3.928
101.3 kPa, x2 = 0.2777	4.003	–	2.676
101.3 kPa, x2 = 0.3972	2.826	–	1.95
101.3 kPa, x2 = 0.5062	2.066	–	1.468
101.3 kPa, x2 = 0.6063	1.571	–	1.137
101.3 kPa, x2 = 0.6976	1.2	–	0.8791
101.3 kPa, x2 = 0.7823	0.9625	–	0.717
101.3 kPa, x2 = 0.8602	0.786	–	0.5933
101.3 kPa, x2 = 0.9327	0.652	–	0.5029

Nc1ccccc1Cl + COc1ccccc1
viscosity [mPa·s], 101 kPa
Settings	x2 = 0.1009	x2 = 0.1969	x2 = 0.2948	x2 = 0.3986	x2 = 0.4961	x2 = 0.5977	x2 = 0.6935	x2 = 0.7952	x2 = 0.9001
298.15 K	2.72	2.454	2.19	1.958	1.746	1.566	1.404	1.27	1.124
303.15 K	2.42	2.196	1.969	1.762	1.583	1.427	1.285	1.156	1.044
308.15 K	2.162	1.971	1.772	1.595	1.438	1.302	1.176	1.064	0.9578
313.15 K	1.939	1.773	1.6	1.446	1.309	1.189	1.08	0.9804	0.8856

Cc1ccc(O)cc1 + CN(C)C=O
viscosity [mPa·s], 101 kPa
Settings	303.15 K	308.15 K	313.15 K	318.15 K
x1 = 0.0758	0.908	0.787	0.769	0.732
x1 = 0.1553	1.098	0.988	0.913	0.845
x1 = 0.2404	1.444	1.208	–	1.087
x1 = 0.3298	1.832	1.611	1.465	1.339
x1 = 0.4247	2.452	2.165	1.952	1.755
x1 = 0.5155	–	2.886	–	–
x1 = 0.5255	3.351	–	–	2.273
x1 = 0.5256	–	–	2.562	–
x1 = 0.6327	4.534	3.905	3.375	2.954
x1 = 0.7472	6.256	5.298	4.489	3.852
x1 = 0.8692	7.994	6.386	5.777	4.485

CCCCn1cc[n+](C)c1.F[B-](F)(F)F + O
101 kPa
Settings	viscosity [mPa·s]
298.15 K, x2 = 0.1036	80.9
298.15 K, x2 = 0.6979	9.53
308.15 K, x2 = 0.6004	8.69
313.15 K, x2 = 0.5014	8.98
318.15 K, x2 = 0.4001	9.72
318.15 K, x2 = 0.5014	7.77
323.15 K, x2 = 0.4001	8.41

Cc1ccc(O)cc1 + C1COCCO1
viscosity [mPa·s], 101 kPa
Settings	303.15 K	308.15 K	313.15 K	318.15 K
x1 = 0.0835	1.335	1.184	1.097	0.9967
x1 = 0.1701	1.476	1.319	1.201	1.106
x1 = 0.26	1.752	1.563	1.422	1.289
x1 = 0.3534	2.165	1.887	1.71	1.542
x1 = 0.4504	2.798	2.473	2.175	1.964
x1 = 0.5515	3.65	3.108	2.733	2.409
x1 = 0.6567	4.783	4.09	3.524	–
x1 = 0.7663	6.413	5.276	4.492	3.804
x1 = 0.8807	8.261	5.704	5.704	4.834
x2 = 0.1	–	6.901	–	–
x2 = 0.2	–	5.697	–	–
x2 = 0.3	–	4.498	–	–
x2 = 0.4	–	3.461	–	–
x2 = 0.5	–	2.724	–	–
x2 = 0.6	–	2.14	–	–
x2 = 0.7	–	1.705	–	–
x2 = 0.8	–	1.401	–	–
x2 = 0.9	–	1.142	–	–

NCCCO + C1COCCO1
viscosity [mPa·s], 101 kPa
Settings	x1 = 0.1197	x1 = 0.2269	x1 = 0.3332	x1 = 0.4339	x1 = 0.5403	x1 = 0.6385	x1 = 0.7328	x1 = 0.8244	x1 = 0.9072
298.15 K	1.419	1.847	2.619	3.465	4.883	6.97	10.21	15	20.98
303.15 K	1.294	1.654	2.311	3.05	4.251	5.966	8.411	12.14	16.7
308.15 K	1.188	1.488	2.037	2.674	3.624	4.916	6.868	9.516	13.47

O=S1(=O)CCCC1 + OCCOCCO
303.15 K, 101 kPa
Settings	viscosity [mPa·s]
x1 = 0.0517	20.1
x1 = 0.0984	18.62
x1 = 0.206	15.85
x1 = 0.2958	13.99
x1 = 0.3988	12.28
x1 = 0.4469	11.69
x1 = 0.4997	11.11
x1 = 0.5346	10.81
x1 = 0.603	10.31
x1 = 0.7047	9.829
x1 = 0.7896	9.536
x1 = 0.8987	9.51
x1 = 0.9348	9.614

Cc1cccc(C)c1 + CS(C)=O
viscosity [mPa·s], 101.3 kPa
Settings	x2 = 0.1004	x2 = 0.2027	x2 = 0.3047	x2 = 0.4044	x2 = 0.5057	x2 = 0.6045	x2 = 0.705	x2 = 0.803	x2 = 0.9011
298.15 K	0.631	0.7	0.782	0.877	0.99	1.116	1.269	1.45	1.68
303.15 K	0.593	0.657	0.73	0.815	0.914	1.026	1.168	1.325	1.528
308.15 K	0.561	0.617	0.684	0.76	0.85	0.952	1.076	1.219	1.397

CCCCOCCOCCO + CCN(CC)CC
viscosity [mPa·s], 100 kPa
Settings	298.15 K	303.15 K	308.15 K
x1 = 0.05083	0.4832	0.4499	0.4246
x1 = 0.1	0.6109	0.5597	0.5234
x1 = 0.15	0.7524	0.6836	0.637
x1 = 0.2	0.9081	0.8131	0.7543
x1 = 0.3	1.246	1.108	1.021
x1 = 0.3999	1.641	1.447	1.324
x1 = 0.5	2.105	1.837	1.669
x1 = 0.5999	2.629	2.278	2.067
x1 = 0.6995	3.213	2.776	2.496
x1 = 0.8	3.822	3.271	2.93
x1 = 0.8998	4.474	3.817	3.419
x1 = 0.9499	4.793	4.075	3.631
